How the values were obtained:
Format in all cases: functional, cell-based
[1] = Cytotoxicity against human MDA231 cells by MTT assay; settings: MDA-MB-231
[2] = tested on: HepG2; assay: Cytotoxicity against human HepG2 cells by MTT assay
[3] = tested on: MCF7; assay: Cytotoxicity against human MCF7 cells by MTT assay
[4] = Cytotoxicity against human A375-S2 cells by MTT assay
[5] = tested on: A549; assay: Cytotoxicity against human A549 cells by MTT assay
[6] = tested on: BGC-823; assay: Cytotoxicity against human BGC823 cells by MTT assay
[7] = tested on: PC-3; assay: Cytotoxicity against human PC3 cells by MTT assay
[8] = tested on: HT-1080; assay: Cytotoxicity against human HT1080 cells by MTT assay
[9] = tested on: HEp-2; assay: Cytotoxicity against human Hep2 cells by MTT assay
[10] = tested on: HeLa; assay: Cytotoxicity against human HeLa cells by MTT assay

Row | Compound | IC50 [1] [µM] | IC50 [2] [µM] | IC50 [3] [µM] | IC50 [4] [µM] | IC50 [5] [µM] | IC50 [6] [µM] | IC50 [7] [µM] | IC50 [8] [µM] | IC50 [9] [µM] | IC50 [10] [µM]
1 | C/C=C(/C)C(=O)O[C@@H]1[C@@H](O)[C@H](O[C@H]2[C@H](OC(C)=O)[C@]3(CO)[C@H](O)C[C@]4(C)C(=CC[C@@H]5[C@@]6(C)CC[C@H](O[C@@H]7O[C@H](C(=O)O)[C@@H](O)[C@H](O)[C@H]7O[C@@H]7O[C@H](CO)[C@@H](O)[C@H](O)[C@H]7O)[C@](C)(CO)[C@@H]6CC[C@]54C)[C@@H]3CC2(C)C)O[C@H](C)[C@@H]1OC(C)=O [BUNKANKASAPONIN A] | 12.2 | 22.2 | 12.7 | 18.1 | 41 | 17.5 | 13.1 | 16.3 | 17.6 | 22.2
2 | C/C=C(/C)C(=O)O[C@@H]1[C@@H](O)[C@H](O[C@H]2[C@H](OC(C)=O)[C@]3(CO)[C@H](O)C[C@]4(C)C(=CC[C@@H]5[C@@]6(C)CC[C@H](O[C@@H]7O[C@H](C(=O)O)[C@@H](O)[C@H](O)[C@H]7O[C@@H]7O[C@H](CO)[C@@H](O)[C@H](O)[C@H]7O)[C@](C)(CO)[C@@H]6CC[C@]54C)[C@@H]3CC2(C)C)O[C@H](C)[C@@H]1OC(=O)/C(C)=C\C [BUNKANKASAPONIN B] | 2.22 | 4.03 | 2.46 | 4.14 | 3.03 | 2.5 | 2.58 | 1.14 | 4.72 | 4.03
3 | C/C=C(/C)C(=O)O[C@@H]1[C@@H](O)[C@H](O[C@H]2[C@H](O)[C@]3(COC(C)=O)[C@H](O)C[C@]4(C)C(=CC[C@@H]5[C@@]6(C)CC[C@H](O[C@@H]7O[C@H](C(=O)O)[C@@H](O)[C@H](O)[C@H]7O[C@@H]7O[C@H](CO)[C@@H](O)[C@H](O)[C@H]7O)[C@](C)(CO)[C@@H]6CC[C@]54C)[C@@H]3CC2(C)C)O[C@H](C)[C@@H]1OC(C)=O [BUNKANKASAPONIN C] | 45.1 | 60.8 | 91.4 | 23.3 | 76.8 | 82.6 | 92.5 | > 100 | > 100 | > 100
4 | C/C=C(/C)C(=O)O[C@@H]1[C@@H](O)[C@H](O[C@H]2[C@H](O)[C@]3(COC(C)=O)[C@H](O)C[C@]4(C)C(=CC[C@@H]5[C@@]6(C)CC[C@H](O[C@@H]7O[C@H](C(=O)O)[C@@H](O)[C@H](O)[C@H]7O[C@@H]7O[C@H](CO)[C@@H](O)[C@H](O)[C@H]7O)[C@](C)(CO)[C@@H]6CC[C@]54C)[C@@H]3CC2(C)C)O[C@H](C)[C@@H]1OC(=O)/C(C)=C\C [BUNKANKASAPONIN D] | 21.8 | 33.1 | 49.4 | 20.4 | 31.7 | 23.9 | 13.2 | > 100 | > 100 | 55.5
5 | C/C=C(/C)C(=O)O[C@@H]1[C@@H](O)[C@H](O[C@H]2[C@H](OC(C)=O)[C@]3(CO)[C@H](O)C[C@]4(C)C(=CC[C@@H]5[C@@]6(C)CC[C@H](O[C@@H]7O[C@H](C(=O)O)[C@@H](O)[C@H](O)[C@H]7O[C@@H]7O[C@H](CO)[C@@H](O)[C@H](O)[C@H]7O)C(C)(C)[C@@H]6CC[C@]54C)[C@@H]3CC2(C)C)O[C@H](C)[C@@H]1OC(=O)/C(C)=C\C [BUNKANKASAPONIN F] | 3.24 | 2.45 | 4.3 | 5.22 | 5.76 | 11.3 | 2.28 | 1.75 | 4.97 | 4.97
6 | O=c1[nH]cc(F)c(=O)[nH]1 [FLUOROURACIL] | 31.6 | 10.5 | 24.6 | 9.92 | 31.5 | 15.7 | 35.8 | 3.06 | 24.6 | 10.4
7 | CC1(C)C[C@H]2C3=CC[C@@H]4[C@@]5(C)CC[C@H](O[C@@H]6O[C@H](CO[C@@H]7O[C@H](CO)[C@@H](O)[C@H](O)[C@H]7O)[C@@H](O)[C@H](O)[C@H]6O)C(C)(C)[C@@H]5CC[C@@]4(C)[C@]3(C)CC[C@@]2(CO[C@@H]2O[C@H](CO[C@@H]3O[C@H](CO)[C@@H](O)[C@H](O)[C@H]3O)[C@@H](O)[C@H](O)[C@H]2O[C@@H]2O[C@H](CO)[C@@H](O)[C@H](O)[C@H]2O)[C@@H](O)[C@@H]1O [SORBIFOLIASIDE A] | > 100 | > 100 | > 100 | > 100 | > 100 | > 100 | > 100 | > 100 | > 100 | > 100
8 | CC1(C)C[C@H]2C3=CC[C@@H]4[C@@]5(C)CC[C@H](O[C@@H]6O[C@H](CO[C@@H]7O[C@H](CO)[C@@H](O)[C@H](O)[C@H]7O)[C@@H](O)[C@H](O)[C@H]6O)C(C)(C)[C@@H]5CC[C@@]4(C)[C@]3(C)CC(=O)[C@@]2(CO[C@@H]2O[C@H](CO[C@@H]3O[C@H](CO)[C@@H](O)[C@H](O)[C@H]3O)[C@@H](O)[C@H](O)[C@H]2O[C@@H]2O[C@H](CO)[C@@H](O)[C@H](O)[C@H]2O)[C@@H](O)[C@@H]1O [SORBIFOLIASIDE B] | > 100 | > 100 | > 100 | > 100 | > 100 | > 100 | > 100 | > 100 | > 100 | > 100
9 | CC1(C)C[C@H]2C3=CC[C@@H]4[C@@]5(C)CC[C@H](O[C@@H]6O[C@H](CO[C@@H]7O[C@H](CO)[C@@H](O)[C@H](O)[C@H]7O)[C@@H](O)[C@H](O)[C@H]6O[C@@H]6O[C@H](CO)[C@@H](O)[C@H](O)[C@H]6O)C(C)(C)[C@@H]5CC[C@@]4(C)[C@]3(C)CC(=O)[C@@]2(CO[C@@H]2O[C@H](CO[C@@H]3O[C@H](CO)[C@@H](O)[C@H](O)[C@H]3O)[C@@H](O)[C@H](O)[C@H]2O)[C@@H](O)[C@@H]1O [SORBIFOLIASIDE C] | > 100 | > 100 | > 100 | > 100 | > 100 | > 100 | > 100 | > 100 | > 100 | > 100
10 | C/C=C(/C)C(=O)O[C@@H]1[C@@H](O)[C@H](O[C@H]2CC[C@]3(C)[C@H]4CC=C5[C@@H]6CC(C)(C)[C@@H](O)[C@H](O)[C@]6(CO[C@@H]6O[C@H](CO[C@@H]7O[C@H](CO)[C@@H](O)[C@H](O)[C@H]7O)[C@@H](O)[C@H](O)[C@H]6O)CC[C@@]5(C)[C@]4(C)CC[C@H]3C2(C)C)O[C@H](CO[C@@H]2O[C@H](CO)[C@@H](O)[C@H](O)[C@H]2O)[C@H]1O [SORBIFOLIASIDE D] | > 100 | > 100 | > 100 | > 100 | > 100 | > 100 | > 100 | > 100 | > 100 | > 100
11 | C/C=C(/C)C(=O)O[C@@H]1[C@@H](O)[C@H](O[C@H]2CC[C@]3(C)[C@H]4CC=C5[C@@H]6CC(C)(C)[C@@H](O)[C@H](O)[C@]6(CO[C@@H]6O[C@H](CO[C@@H]7O[C@H](CO)[C@@H](O)[C@H](O)[C@H]7O)[C@@H](O)[C@H](O)[C@H]6O)C(=O)C[C@@]5(C)[C@]4(C)CC[C@H]3C2(C)C)O[C@H](CO[C@@H]2O[C@H](CO)[C@@H](O)[C@H](O)[C@H]2O)[C@H]1O [SORBIFOLIASIDE E] | > 100 | > 100 | > 100 | > 100 | > 100 | > 100 | > 100 | > 100 | > 100 | > 100
12 | C/C=C(/C)C(=O)O[C@@H]1[C@@H](O)[C@H](O[C@H]2CC[C@]3(C)[C@H]4CC=C5[C@@H]6CC(C)(C)[C@@H](O)[C@H](O)[C@]6(CO[C@@H]6O[C@H](CO[C@@H]7O[C@H](CO)[C@@H](O)[C@H](O)[C@H]7O)[C@@H](O)[C@H](O)[C@H]6O[C@@H]6O[C@H](CO)[C@@H](O)[C@H](O)[C@H]6O)CC[C@@]5(C)[C@]4(C)CC[C@H]3C2(C)C)O[C@H](CO[C@@H]2O[C@H](CO)[C@@H](O)[C@H](O)[C@H]2O)[C@H]1OC(C)=O [SORBIFOLIASIDE F] | > 100 | > 100 | > 100 | > 100 | > 100 | > 100 | > 100 | > 100 | > 100 | > 100
13 | C[C@@H]1O[C@@H](O[C@H]2[C@H](OC[C@@]34CC[C@]5(C)C(=CC[C@@H]6[C@@]7(C)CC[C@H](O[C@@H]8O[C@H](CO[C@@H]9O[C@H](CO)[C@@H](O)[C@H](O)[C@H]9O)[C@@H](O)[C@H](O)[C@H]8O)C(C)(C)[C@@H]7CC[C@]65C)[C@@H]3CC(C)(C)[C@@H](O)[C@@H]4O)O[C@H](CO[C@@H]3O[C@H](CO)[C@@H](O)[C@H](O)[C@H]3O)[C@@H](O)[C@@H]2O)[C@H](O)[C@H](O)[C@H]1O [XANIFOLIA O54] | > 100 | > 100 | > 100 | > 100 | > 100 | > 100 | > 100 | > 100 | > 100 | > 100
